Data on 23 molecules can be found in US12049439B2 (OrsoBio, Inc., priority 2018, dated 2024).

Some results are limits rather than exact numbers.

In this assay the test system is PC-3 cells. Kind of assay: PC-3 Oxygen Rate Consumption (OCR) Assay. As to conditions: Homo sapiens, 0.05 h, medium with 2% FBS, OCR at 3-min post-injection normalized to % increase over DMSO-treated cells, concentration for half-maximal OCR increase, read-out: EC50-PC3-OCR-FBS-3min. Format: cell-based. In a few lines:
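PC-3 cells seeded a day before, equilibrated 1 h in XF medium with 10 mM glucose, 1 mM pyruvate, 2% FBS, non-CO2 at 37 °C. Compound injected after basal OCR reads; OCR at 3 min post-injection normalized as % increase over DMSO, EC50 = half-maximal increase; six replicates.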
Regarding `CC(C)(C)S(=O)(=O)c1ccc(S(=O)(=O)Nc2cc(F)ccc2C(=O)NC23CC(C(F)(F)F)(C2)C3)cc1` [Example 152, 2-((4-(tert-butylsulfonyl)phenyl)sulfonamido)-4-fluoro-N-(3-(trifluoromethyl)bicyclo[1.1.1]pentan-1-yl)benzamide], the EC50 is 1.13 µM.
The result for `CC(C)(C)S(=O)(=O)c1ccc(S(=O)(=O)Nc2cc(F)ccc2C(=O)NC23CC(C#N)(C2)C3)cc1` [Example 153, 2-((4-(tert-butylsulfonyl)phenyl)sulfonamido)-N-(3-cyanobicyclo[1.1.1]pentan-1-yl)-4-fluorobenzamide] reads 10.7 µM; that for `CS(=O)(=O)c1ccc(S(=O)(=O)Nc2cc(S(F)(F)(F)(F)F)ccc2C(=O)NC23CC(C(F)(F)F)(C2)C3)cc1` [Example 154, 2-((4-(methylsulfonyl)phenyl)sulfonamido)-4-(pentafluoro-λ^6-sulfanyl)-N-(3-(trifluoromethyl)bicyclo[1.1.1]pentan-1-yl)benzamide], 8.02 µM; that for `CS(=O)(=O)c1ccc(S(=O)(=O)Nc2cc(S(F)(F)(F)(F)F)ccc2C(=O)NC23CC(C2)C3)cc1` [Example 155, N-(bicyclo[1.1.1]pentan-1-yl)-2-((4-(methylsulfonyl)phenyl)sulfonamido)-4-(pentafluoro-λ^6-sulfanyl)benzamide], 5.87 µM.
For the molecule `CC(C)(C)S(=O)(=O)Nc1ccc(C(F)(F)F)cc1C(=O)NC12CCC(C(=O)O)(CC1)CC2` [Example 156, 4-(2-((1,1-dimethylethyl)sulfonamido)-5-(trifluoromethyl)benzamido)bicyclo[2.2.2]octane-1-carboxylic Acid], the concentration for a half-maximal effect (EC50) was at least 200 µM.
The result for `CC(C)(C)S(=O)(=O)Nc1ccc(C(F)(F)F)cc1C(=O)NC12CC(C(F)(F)F)(C1)C2` [Example 157, 2-((1,1-dimethylethyl)sulfonamido)-5-(trifluoromethyl)-N-(3-(trifluoromethyl)bicyclo[1.1.1]pentan-1-yl)benzamide] reads 0.352 µM; that for `N#Cc1ccc(S(=O)(=O)Nc2cc(C(F)(F)F)ccc2C(=O)NC23CC(C(F)(F)F)(C2)C3)cc1` [Example 158, 2-((4-cyanophenyl)sulfonamido)-4-(trifluoromethyl)-N-(3-(trifluoromethyl)bicyclo[1.1.1]pentan-1-yl)benzamide], 1.43 µM.
With `O=C(NC12CC(C(F)(F)F)(C1)C2)c1ccc(C(F)(F)F)cc1NS(=O)(=O)c1ccc(-c2nnn[nH]2)cc1` [Example 159, 2-((4-(1H-tetrazol-5-yl)phenyl)sulfonamido)-4-(trifluoromethyl)-N-(3-(trifluoromethyl)bicyclo[1.1.1]pentan-1-yl)benzamide], the EC50 was at least 200 µM.
In the case of `N#Cc1ccc(S(=O)(=O)Nc2cc(C(F)(F)F)ccc2C(=O)NC23CC(c4ccccc4)(C2)C3)cc1` [Example 160, 2-((4-cyanophenyl)sulfonamido)-N-(3-phenylbicyclo[1.1.1]pentan-1-yl)-4-(trifluoromethyl)benzamide], the EC50 was 0.632 µM.
As to `CC(C)(C)S(=O)(=O)Nc1cc(S(F)(F)(F)(F)F)ccc1C(=O)NC12CCC(C#N)(CC1)CC2` [Example 161, N-(4-cyanobicyclo[2.2.2]octan-1-yl)-2-((1,1-dimethylethyl)sulfonamido)-4-(pentafluoro-λ^6-sulfanyl)benzamide], the half-maximal effective concentration (EC50) was 1.09 µM.
The result for `O=C(NC12CC(C(F)(F)F)(C1)C2)c1cc(C(F)(F)F)ccc1NS(=O)(=O)C1CCS(=O)(=O)CC1` [Example 162, 2-((1,1-dioxidotetrahydro-2H-thiopyran)-4-sulfonamido)-5-(trifluoromethyl)-N-(3-(trifluoromethyl)bicyclo[1.1.1]pentan-1-yl)benzamide] reads 34.1 µM; that for `CN(C)S(=O)(=O)Nc1cc(C(F)(F)F)ccc1C(=O)NC12CCC(C#N)(CC1)CC2` [Example 163, N-(4-cyanobicyclo[2.2.2]octan-1-yl)-2-((N,N-dimethylsulfamoyl)amino)-4-(trifluoromethyl)benzamide], 3.77 µM; that for `CC(C)(C)S(=O)(=O)Nc1ccc(C(F)(F)F)cc1C(=O)NC12CC(C#N)(C1)C2` [Example 164, N-(3-cyanobicyclo[1.1.1]pentan-1-yl)-2-((1,1-dimethylethyl)sulfonamido)-5-(trifluoromethyl)benzamide], 1.74 µM.
Under `CS(=O)(=O)Nc1ccc(C(F)(F)F)cc1C(=O)NC12CC(C#N)(C1)C2` [Example 165, N-(3-cyanobicyclo[1.1.1]pentan-1-yl)-2-(methylsulfonamido)-5(trifluoromethyl)benzamide] stands 20.8 µM; under `CS(=O)(=O)Nc1ccc(C(F)(F)F)cc1C(=O)NC12CC(C(F)(F)F)(C1)C2` [Example 166, 2-(methylsulfonamido)-5-(trifluoromethyl)-N-(3-(trifluoromethyl)bicyclo[1.1.1]pentan-1-yl)benzamide], 1.07 µM; under `CS(=O)(=O)Nc1ccc(S(F)(F)(F)(F)F)cc1C(=O)NC12CCC(C#N)(CC1)CC2` [Example 167, N-(4-cyanobicyclo[2.2.2]octan-1-yl)-2-(methylsulfonamido)-5-(pentafluoro-λ^6-sulfanyl)benzamide], 5.88 µM.
The result for `CS(=O)(=O)Nc1cc(C(F)(F)F)ccc1C(=O)NC12CCC(C#N)(CC1)CC2` [Example 168, N-(4-cyanobicyclo[2.2.2]octan-1-yl)-2-(methylsulfonamido)-4-(trifluoromethyl)benzamide] reads 15 µM; that for `COC12CC(NC(=O)c3cc(C(F)(F)F)ccc3NS(=O)(=O)C(C)(C)C)(C1)C2` [Example 169, 2-((1,1-dimethylethyl)sulfonamido)-N-(3-methoxybicyclo[1.1.1]pentan-1-yl)-5-(trifluoromethyl)benzamide], 11.4 µM; that for `COC12CC(NC(=O)c3cc(C(F)(F)F)ccc3NS(C)(=O)=O)(C1)C2` [Example 170, N-(3-methoxybicyclo[1.1.1]pentan-1-yl)-2-(methylsulfonamido)-5-(trifluoromethyl)benzamide], 44.8 µM.
Regarding `CC(C)(C)S(=O)(=O)Nc1ccc(C(F)(F)F)cc1C(=O)NC12CCC(O)(CC1)CC2` [Example 171, 2-((1,1-dimethylethyl)sulfonamido)-N-(4-hydroxybicyclo[2.2.2]octan-1-yl)-5-(trifluoromethyl)benzamide], the concentration for a half-maximal effect (EC50) came out at 112 µM.
The result for `CC(C)(C)S(=O)(=O)Nc1ccc(C(F)(F)F)cc1C(=O)NC12CCC(C#N)(CC1)C2` [Example 172, N-(4-cyanobicyclo[2.2.1]heptan-1-yl)-2-((1,1-dimethylethyl)sulfonamido)-5-(trifluoromethyl)benzamide] reads 1.66 µM.
Under `CS(=O)(=O)Nc1ccc(C(F)(F)F)cc1C(=O)NC12CCC(C#N)(CC1)C2` [Example 173, N-(4-cyanobicyclo[2.2.1]heptan-1-yl)-2-(methylsulfonamido)-5-(trifluoromethyl)benzamide] stands 26.4 µM.
For the molecule `CN(C)S(=O)(=O)Nc1ccc(C(F)(F)F)cc1C(=O)NC1CC2CCC(C1)N2S(C)(=O)=O` (centres unmarked) [Example 174, 2-((N,N-dimethylsulfamoyl)amino)-N-(8-(methylsulfonyl)-8-azabicyclo[3.2.1]octan-3-yl)-5-(trifluoromethyl)benzamide], the EC50 is 108 µM.
